Values after ≈ are worked out from the molar mass of the structure shown. Where two headings read alike, the source gives them in different places.
Key:
BsSecA [1] = molecular target: T1, BsSecA (Bacillus subtilis, UniProt P28366); experiment: biochemical; assay type: biochemical, B. subtilis
BaSecA1 = BaSecA1 (Bacillus anthracis, UniProt Q81X26); experiment: cell-based; conditions: read-out: IC50, Ion Channel activity, BGaSecA 1
EcSecA [2] = molecular target: T2, EcSecA (Escherichia coli, UniProt P10408); conditions: read-out: IC50, Ion Channel activity, EcSecA; Table 1
Target sequence in this assay (P10408 whole entry): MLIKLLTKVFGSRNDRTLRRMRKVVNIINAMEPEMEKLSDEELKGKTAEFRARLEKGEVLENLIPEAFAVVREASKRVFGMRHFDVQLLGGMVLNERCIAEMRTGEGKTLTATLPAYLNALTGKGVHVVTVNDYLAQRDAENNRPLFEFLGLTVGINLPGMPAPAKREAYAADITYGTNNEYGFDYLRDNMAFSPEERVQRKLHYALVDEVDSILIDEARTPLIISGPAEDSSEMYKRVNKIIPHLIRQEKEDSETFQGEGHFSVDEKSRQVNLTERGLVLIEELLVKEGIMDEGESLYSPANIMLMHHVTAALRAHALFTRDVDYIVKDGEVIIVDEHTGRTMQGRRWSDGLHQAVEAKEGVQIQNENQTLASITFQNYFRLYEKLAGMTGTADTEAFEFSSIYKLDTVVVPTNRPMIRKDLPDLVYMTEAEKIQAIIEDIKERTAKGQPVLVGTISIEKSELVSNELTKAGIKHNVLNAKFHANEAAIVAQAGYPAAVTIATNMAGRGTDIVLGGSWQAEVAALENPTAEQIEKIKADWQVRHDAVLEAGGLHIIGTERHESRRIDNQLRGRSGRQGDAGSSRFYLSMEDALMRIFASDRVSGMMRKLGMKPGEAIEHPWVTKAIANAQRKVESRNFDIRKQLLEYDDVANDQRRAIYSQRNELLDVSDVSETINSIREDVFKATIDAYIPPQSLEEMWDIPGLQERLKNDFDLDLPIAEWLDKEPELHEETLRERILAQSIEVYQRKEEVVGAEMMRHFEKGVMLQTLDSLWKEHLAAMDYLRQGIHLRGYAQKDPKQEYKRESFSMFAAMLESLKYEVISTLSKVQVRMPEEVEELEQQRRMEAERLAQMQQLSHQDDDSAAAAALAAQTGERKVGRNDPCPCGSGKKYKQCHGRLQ

SaSecA1 = molecular target: T3, SaSecA1 (Staphylococcus aureus, UniProt O06446); conditions: read-out: IC50, Ion Channel activity, SaSecA1; Table 1
T3 sequence (O06446 1-843): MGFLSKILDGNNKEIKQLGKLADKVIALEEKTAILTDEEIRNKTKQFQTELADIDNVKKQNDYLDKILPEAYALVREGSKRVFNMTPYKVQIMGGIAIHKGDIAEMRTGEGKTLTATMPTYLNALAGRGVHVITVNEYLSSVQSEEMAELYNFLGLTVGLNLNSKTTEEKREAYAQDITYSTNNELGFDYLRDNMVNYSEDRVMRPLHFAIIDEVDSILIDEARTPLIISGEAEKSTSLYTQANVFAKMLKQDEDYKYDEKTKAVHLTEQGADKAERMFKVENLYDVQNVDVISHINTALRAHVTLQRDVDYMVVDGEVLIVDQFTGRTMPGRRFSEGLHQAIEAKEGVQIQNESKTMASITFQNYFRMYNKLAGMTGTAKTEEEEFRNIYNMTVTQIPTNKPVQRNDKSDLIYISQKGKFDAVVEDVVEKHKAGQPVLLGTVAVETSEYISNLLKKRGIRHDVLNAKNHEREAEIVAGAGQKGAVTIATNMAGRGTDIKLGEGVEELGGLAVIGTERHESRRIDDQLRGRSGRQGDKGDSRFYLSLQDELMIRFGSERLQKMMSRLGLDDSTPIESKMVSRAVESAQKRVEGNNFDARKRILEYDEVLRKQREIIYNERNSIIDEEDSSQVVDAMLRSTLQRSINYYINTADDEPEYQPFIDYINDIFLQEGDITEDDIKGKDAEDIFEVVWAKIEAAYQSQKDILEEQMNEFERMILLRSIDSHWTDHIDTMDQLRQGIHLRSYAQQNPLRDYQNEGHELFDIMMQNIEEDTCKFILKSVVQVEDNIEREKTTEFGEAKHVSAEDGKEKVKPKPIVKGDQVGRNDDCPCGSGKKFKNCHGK

MsSecA = MsSecA (Mycolicibacterium smegmatis, UniProt P71533); experiment: SecA-liposomes ion-channel activity in oocytes, MsSecA; assay type: cell-based; conditions: Table 1
Chain of MsSecA (P71533 whole entry): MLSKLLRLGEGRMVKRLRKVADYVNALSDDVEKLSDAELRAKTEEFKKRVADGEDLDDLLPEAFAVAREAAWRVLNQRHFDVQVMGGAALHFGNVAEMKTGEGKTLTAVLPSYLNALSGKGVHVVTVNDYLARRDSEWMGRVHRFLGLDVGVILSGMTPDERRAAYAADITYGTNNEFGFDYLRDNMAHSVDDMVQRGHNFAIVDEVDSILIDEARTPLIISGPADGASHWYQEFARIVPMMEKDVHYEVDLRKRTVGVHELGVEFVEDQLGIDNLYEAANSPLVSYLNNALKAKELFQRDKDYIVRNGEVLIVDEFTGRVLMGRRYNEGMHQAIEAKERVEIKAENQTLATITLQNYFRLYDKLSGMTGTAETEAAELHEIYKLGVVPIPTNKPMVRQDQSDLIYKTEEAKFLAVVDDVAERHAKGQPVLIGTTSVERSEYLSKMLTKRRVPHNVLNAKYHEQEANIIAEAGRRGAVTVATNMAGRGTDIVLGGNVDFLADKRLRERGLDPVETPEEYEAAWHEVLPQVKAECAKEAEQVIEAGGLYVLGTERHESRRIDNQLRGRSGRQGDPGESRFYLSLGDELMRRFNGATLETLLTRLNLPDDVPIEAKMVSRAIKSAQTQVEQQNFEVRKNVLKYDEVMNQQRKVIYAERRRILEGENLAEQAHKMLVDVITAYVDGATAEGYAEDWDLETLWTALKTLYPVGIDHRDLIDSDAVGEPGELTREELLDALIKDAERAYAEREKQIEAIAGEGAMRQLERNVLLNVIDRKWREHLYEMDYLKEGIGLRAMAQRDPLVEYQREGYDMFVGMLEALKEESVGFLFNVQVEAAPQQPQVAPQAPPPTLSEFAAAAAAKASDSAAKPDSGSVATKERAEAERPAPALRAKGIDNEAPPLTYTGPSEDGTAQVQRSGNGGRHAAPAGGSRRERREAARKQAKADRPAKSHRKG

EcSecA [3] = molecular target: T2, EcSecA; conditions: read-out: IC50, Translocation ATPase, EcSecA; Table 1
Target sequence in this assay (P0AG99 whole entry): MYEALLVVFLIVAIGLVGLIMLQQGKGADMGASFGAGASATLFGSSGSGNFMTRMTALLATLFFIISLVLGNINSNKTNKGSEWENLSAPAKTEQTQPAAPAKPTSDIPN
Target sequence in this assay (P10408 whole entry): as the sequence (P10408 whole entry) above
Target sequence in this assay (P0AGA2 whole entry, further chain): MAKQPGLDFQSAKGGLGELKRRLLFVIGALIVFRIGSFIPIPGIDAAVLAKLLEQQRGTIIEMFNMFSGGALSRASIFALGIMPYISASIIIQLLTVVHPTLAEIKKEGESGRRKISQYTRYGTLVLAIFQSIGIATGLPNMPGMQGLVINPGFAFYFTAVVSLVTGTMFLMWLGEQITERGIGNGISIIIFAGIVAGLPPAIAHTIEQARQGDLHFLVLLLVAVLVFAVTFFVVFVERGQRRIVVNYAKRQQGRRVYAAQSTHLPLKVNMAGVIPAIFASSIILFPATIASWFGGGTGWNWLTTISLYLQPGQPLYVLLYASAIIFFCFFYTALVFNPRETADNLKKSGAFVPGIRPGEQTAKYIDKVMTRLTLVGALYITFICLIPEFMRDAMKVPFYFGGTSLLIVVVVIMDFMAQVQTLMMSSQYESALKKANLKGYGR
Target sequence in this assay (P0AG96 whole entry, further chain): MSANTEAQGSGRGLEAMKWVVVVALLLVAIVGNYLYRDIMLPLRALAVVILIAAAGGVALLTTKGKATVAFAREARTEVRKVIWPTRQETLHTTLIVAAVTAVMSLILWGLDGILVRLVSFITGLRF

SpSecA = SpSecA (Streptococcus pyogenes, UniProt Q99Y96); assay type: cell-based; conditions: read-out: IC50, Ion Channel activity, SpSecA
EcSecA [4] = molecular target: T2, EcSecA; experiment: biochemical; conditions: IC50, Protein Translocation, Table 1
Target sequence in this assay (P0AG99 whole entry): as the sequence (P0AG99 whole entry) above
Target sequence in this assay (P10408 whole entry): as the sequence (P10408 whole entry) above
Target sequence in this assay (P0AGA2 whole entry, further chain): as the sequence (P0AGA2 whole entry, further chain) above
Target sequence in this assay (P0AG96 whole entry, further chain): as the sequence (P0AG96 whole entry, further chain) above

S. pyogenes, MGAS5005 = experiment: MIC95, S. pyogenes MGAS5005; assay type: cell-based; conditions: Streptococcus pyogenes, MGAS5005; read-out: MIC95, S. pyogenes MGAS5005
PaSecA = PaSecA (Pseudomonas aeruginosa, UniProt Q9LCT3); experiment: cell-based; assay type: cell-based; conditions: IC50, Ion Channel activity, PASecA, Table 1
S. aureus Mu50 = experiment: Bacteriostatic effect, S. aureus Mu50; conditions: Staphylococcus aureus, MU50, read-out: MIC95 against drug resistant S. aureus Mu50
BsSecA2 = conditions: read-out: IC50, Intrinsic ATPase, BsSecA2; Table 1
EcSecA N68 = EcSecA N68 (Escherichia coli, UniProt P10408); experiment: biochemical; assay type: biochemical, E. coli; conditions: Table 1; read-out: IC50, Intrinsic ATPase, EcSecA N68
Chain of EcSecA N68 (P10408 1-610): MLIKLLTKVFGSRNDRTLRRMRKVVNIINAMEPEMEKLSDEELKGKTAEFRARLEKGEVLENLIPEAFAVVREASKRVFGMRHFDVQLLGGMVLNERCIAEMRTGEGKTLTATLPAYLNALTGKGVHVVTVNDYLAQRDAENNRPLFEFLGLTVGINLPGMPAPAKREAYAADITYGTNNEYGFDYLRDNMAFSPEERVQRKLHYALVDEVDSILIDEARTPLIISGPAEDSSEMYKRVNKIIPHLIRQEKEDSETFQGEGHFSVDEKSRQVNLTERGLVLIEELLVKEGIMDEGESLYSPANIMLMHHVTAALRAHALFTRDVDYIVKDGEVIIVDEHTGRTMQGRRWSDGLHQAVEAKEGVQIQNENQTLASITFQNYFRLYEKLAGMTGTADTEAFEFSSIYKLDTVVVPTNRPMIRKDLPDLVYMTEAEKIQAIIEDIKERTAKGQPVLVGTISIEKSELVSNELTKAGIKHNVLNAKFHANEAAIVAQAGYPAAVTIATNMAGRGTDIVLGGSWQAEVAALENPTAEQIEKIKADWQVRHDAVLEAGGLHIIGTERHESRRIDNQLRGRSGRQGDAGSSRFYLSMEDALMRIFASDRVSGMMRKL

MtbSecA = MtbSecA (Mycobacterium tuberculosis, UniProt P9WGP5); experiment: cell-based
BsSecA [5] = molecular target: T1, BsSecA; experiment: cell-based; set-up: species or system B. subtilis; conditions: Table 1; read-out: IC50, Ion Channel activity, BsSecA
SaSecA2 = molecular target: T4, SaSecA2 (Staphylococcus aureus, UniProt Q2FUW6); experiment: ATPase activity assay (malachite green), SaSecA2; conditions: IC50, Intrinsic ATPase, SaSecA2, Table 1
T4 sequence (Q2FUW6 1-796): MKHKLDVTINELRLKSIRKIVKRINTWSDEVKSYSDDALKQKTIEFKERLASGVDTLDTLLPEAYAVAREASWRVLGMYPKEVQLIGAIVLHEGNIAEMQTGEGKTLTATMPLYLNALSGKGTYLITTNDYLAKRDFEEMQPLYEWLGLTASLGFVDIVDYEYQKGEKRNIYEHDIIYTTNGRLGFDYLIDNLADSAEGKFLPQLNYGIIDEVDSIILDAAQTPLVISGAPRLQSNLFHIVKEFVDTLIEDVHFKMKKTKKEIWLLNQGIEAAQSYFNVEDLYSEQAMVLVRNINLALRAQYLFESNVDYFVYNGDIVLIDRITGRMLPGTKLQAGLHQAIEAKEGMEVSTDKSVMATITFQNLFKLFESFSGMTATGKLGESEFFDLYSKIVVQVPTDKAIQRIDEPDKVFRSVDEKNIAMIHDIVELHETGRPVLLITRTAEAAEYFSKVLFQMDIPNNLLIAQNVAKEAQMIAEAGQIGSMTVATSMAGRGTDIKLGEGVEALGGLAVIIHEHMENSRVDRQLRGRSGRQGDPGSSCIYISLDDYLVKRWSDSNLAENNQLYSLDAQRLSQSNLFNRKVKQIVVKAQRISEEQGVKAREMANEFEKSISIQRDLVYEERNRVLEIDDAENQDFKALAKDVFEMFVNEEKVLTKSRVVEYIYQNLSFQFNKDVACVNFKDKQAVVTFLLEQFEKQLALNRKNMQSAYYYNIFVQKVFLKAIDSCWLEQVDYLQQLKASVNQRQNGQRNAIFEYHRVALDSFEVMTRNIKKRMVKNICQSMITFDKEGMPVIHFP

T1 sequence (P28366 whole entry): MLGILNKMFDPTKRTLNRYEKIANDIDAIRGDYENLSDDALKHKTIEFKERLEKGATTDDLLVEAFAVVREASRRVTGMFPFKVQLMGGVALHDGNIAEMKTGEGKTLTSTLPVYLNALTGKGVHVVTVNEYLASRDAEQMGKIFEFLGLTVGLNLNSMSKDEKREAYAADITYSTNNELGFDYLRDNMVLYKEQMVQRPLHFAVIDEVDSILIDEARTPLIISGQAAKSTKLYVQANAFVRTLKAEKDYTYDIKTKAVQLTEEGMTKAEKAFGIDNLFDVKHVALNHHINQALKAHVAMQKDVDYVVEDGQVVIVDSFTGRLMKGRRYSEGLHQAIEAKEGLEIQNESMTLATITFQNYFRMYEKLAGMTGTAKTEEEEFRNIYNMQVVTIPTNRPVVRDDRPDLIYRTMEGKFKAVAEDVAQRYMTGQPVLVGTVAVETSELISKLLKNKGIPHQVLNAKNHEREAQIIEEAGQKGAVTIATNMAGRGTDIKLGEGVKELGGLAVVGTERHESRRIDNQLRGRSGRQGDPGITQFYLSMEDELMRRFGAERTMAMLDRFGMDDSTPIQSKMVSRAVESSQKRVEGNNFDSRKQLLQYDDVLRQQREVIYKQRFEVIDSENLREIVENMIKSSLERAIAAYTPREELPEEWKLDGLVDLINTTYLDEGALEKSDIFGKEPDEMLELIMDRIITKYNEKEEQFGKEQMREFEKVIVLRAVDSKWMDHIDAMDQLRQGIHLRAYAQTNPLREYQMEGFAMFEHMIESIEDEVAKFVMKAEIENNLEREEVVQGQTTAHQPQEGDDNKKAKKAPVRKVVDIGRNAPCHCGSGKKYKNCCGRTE
Chain of BaSecA1 (Q81X26 whole entry, looked up): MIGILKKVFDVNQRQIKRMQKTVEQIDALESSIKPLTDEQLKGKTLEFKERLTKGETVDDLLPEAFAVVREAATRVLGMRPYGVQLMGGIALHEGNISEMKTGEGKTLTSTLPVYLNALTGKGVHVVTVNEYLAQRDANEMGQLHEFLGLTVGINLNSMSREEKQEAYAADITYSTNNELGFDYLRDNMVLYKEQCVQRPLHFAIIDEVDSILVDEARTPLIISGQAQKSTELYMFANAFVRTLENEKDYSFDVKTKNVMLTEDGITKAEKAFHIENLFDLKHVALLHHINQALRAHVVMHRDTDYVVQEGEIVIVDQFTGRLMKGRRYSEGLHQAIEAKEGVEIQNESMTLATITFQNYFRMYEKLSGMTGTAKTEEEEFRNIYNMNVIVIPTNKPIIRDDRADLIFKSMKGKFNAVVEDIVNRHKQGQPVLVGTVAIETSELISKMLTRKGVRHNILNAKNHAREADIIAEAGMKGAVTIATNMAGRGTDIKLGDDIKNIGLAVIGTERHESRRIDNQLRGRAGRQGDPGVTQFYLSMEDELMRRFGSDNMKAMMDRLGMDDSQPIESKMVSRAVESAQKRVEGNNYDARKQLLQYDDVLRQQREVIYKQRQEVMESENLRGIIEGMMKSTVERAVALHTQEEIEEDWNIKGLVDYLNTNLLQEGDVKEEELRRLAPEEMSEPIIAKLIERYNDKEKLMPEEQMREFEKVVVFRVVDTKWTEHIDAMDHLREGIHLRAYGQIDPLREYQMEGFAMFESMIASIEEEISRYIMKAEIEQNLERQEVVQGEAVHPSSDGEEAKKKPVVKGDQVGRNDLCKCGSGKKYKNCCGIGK

For `CSc1nc(Cl)cc(Sc2nnc(-c3cc(C(F)(F)F)cc(C(F)(F)F)c3)[nH]2)n1` [SCA-107], the IC50 (BsSecA [1]) was greater than 200000 nM, the IC50 (BaSecA1) was 700 nM and the IC50 (EcSecA [2]) was 1600 nM. The IC50 (SaSecA1) was 600 nM, the IC50 (MsSecA) was 2500 nM and the IC50 (EcSecA [3]) was 28000 nM. The IC50 (SpSecA) was 700 nM, the IC50 (EcSecA [4]) was 25000 nM and the MIC (S. pyogenes, MGAS5005) was 0.19 µM (≈ 0.0896 µg/mL). It also gave an IC50 (PaSecA) of 1300 nM, an MIC (S. aureus Mu50) of 0.5 µM (≈ 0.236 µg/mL) and an IC50 (BsSecA2) of 65000 nM. For the same molecule, the IC50 (EcSecA N68) was 30000 nM, the IC50 (MtbSecA) was 2000 nM and the IC50 (BsSecA [5]) was 2100 nM. For the same molecule, the IC50 (SaSecA2) was 50000 nM.

Reference: patent US9957247B2, “SecA inhibitors and methods of making and using thereof” (Georgia State University Research Foundation, Inc., priority 2012, dated 2018)
